{"source": "paper PMC5120204", "about": "“Identification of an orally active small-molecule PTHR1 agonist for the treatment of hypoparathyroidism” (Nature Communications, 2016)", "key": {"hPTHR1": {"target": "T1, hPTHR1 (Homo sapiens, UniProt Q03431)", "T1 construct": "similar to that of cells expressing full-length hPTHR1; expressed in transfected cells; host or cells: COS-7 (transient, FuGENE HD)", "T1 sequence (Q03431 27-593 E93Y/D94P/K95Y/E96D/A97V/T99D/G100Y/S101A)": "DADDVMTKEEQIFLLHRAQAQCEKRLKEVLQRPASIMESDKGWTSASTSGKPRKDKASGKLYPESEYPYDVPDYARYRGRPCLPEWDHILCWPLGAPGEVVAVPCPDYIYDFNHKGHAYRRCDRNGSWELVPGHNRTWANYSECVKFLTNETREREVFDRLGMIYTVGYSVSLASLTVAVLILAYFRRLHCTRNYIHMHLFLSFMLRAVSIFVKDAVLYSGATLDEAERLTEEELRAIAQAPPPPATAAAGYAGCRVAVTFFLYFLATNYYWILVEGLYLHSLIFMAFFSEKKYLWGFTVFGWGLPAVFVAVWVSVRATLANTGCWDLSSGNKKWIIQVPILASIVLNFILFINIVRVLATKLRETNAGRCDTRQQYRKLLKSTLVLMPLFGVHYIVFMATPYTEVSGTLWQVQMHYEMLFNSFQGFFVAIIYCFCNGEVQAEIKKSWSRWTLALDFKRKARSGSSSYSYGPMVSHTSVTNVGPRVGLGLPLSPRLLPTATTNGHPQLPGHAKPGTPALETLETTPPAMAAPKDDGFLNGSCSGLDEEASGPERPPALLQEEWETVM", "assay": "Phospholipase C activity assay ([3H]-inositol phosphate) in COS-7 cells expressing hPTHR1", "assay_type": "cell-based", "conditions": "COS-7 cells expressing hPTHR1, 40 min; concentration that achieves the EC50 for hPTH(1–34)", "protocol": "COS-7 cells (ATCC) were seeded into a 96-well flat-bottomed plate (1.4 × 10^4 cells per 100 μl per well) and incubated overnight. The next day, the COS-7 cells were transfected by adding 10 μl of a mixture of hPTHR1 plasmid or empty vector (0.1 μg per well), FuGENE HD Transfection Reagent (0.4 μl per well, Promega), and Opti-MEM I Reduced Serum Medium (10 μl per well, Life Technologies) to each well. On the second day after the cells were seeded into the plate, the culture medium in the wells was discarded, and 100 μl of ^3H-myoinositol/0.1% BSA/DMEM adjusted to 111 kBq ml^−1 (PerkinElmer, Inc.) was added to each well. […] After that, the ^3H radioactivity was measured using a liquid scintillation analyzer. EC50 values were determined from three independent experiments in […] by a non-linear regression Emax model (JMP ver.9.0.2, SAS Institute). […] The geometric means of the EC50 values obtained in three experiments in duplicate were calculated using Microsoft Office Excel 2007."}, "fetal rat long bones": {"test_system": "fetal rat long bones", "assay": "Fetal rat long bone cultures, 45Ca release", "assay_type": "cell-based", "conditions": "organ culture", "protocol": "Bone-resorbing activity was assessed by fetal rat long bone cultures. ^45CaCl2 (1,480 kBq, PerkinElmer) was subcutaneously injected into a pregnant Crl:CD(SD) rat (Charles River Laboratories) on its 18th day of gestation. At 48 h after the injection, the pregnant rat was euthanized, and the ulnae and radial bones were isolated from euthanized fetal rats. The long bones were placed on nylon mesh and covered with paraffin paper, and a floating culture in BGJb medium (Life Technologies) containing antibiotic–antimycotic (× 1, Life Technologies) was carried out for 3 days at 37 °C in 95% air and 5% CO2 atmosphere. On the 4th day, the medium was replaced with fresh BGJb medium containing hPTH(1–34) (1 nmol l^−1 to 1 μmol l^−1) or PCO371 (0.1 nmol l^−1 to 3 μmol l^−1) or vehicle (0.1% DMSO and 0.1 mmol l^−1 acetic acid at final concentration) and cultured for a further 4 days at 37 °C. Bone samples were then treated with 10% TCA (500 μl/bone) overnight at 37 °C. Radioactivity of the bone and the medium samples was measured. Four to five long bones were used for each individual dose. ^45Ca release (%) was calculated by the following formula (equation (4)): […]"}}}
{"compound": "Cc1cc(N2C(=O)NC(=O)C2(C)C)cc(C)c1CCS(=O)(=O)N1CCC2(CC1)N=C(c1ccc(OC(F)(F)F)cc1)NC2=O", "note": "[PCO371, 1-{3,5-dimethyl-4-[2-({4-oxo-2-[4-(trifluoromethoxy)phenyl]-1,3,8-triazaspiro[4.5]dec-1-en-8-yl}sulfonyl)ethyl]phenyl}-5,5-dimethylimidazolidine-2,4-dione]", "values": [{"measurement": "EC50", "setting": "hPTHR1", "result": 17, "unit": "µM"}, {"measurement": "concentration able to stimulate 45Ca release from prelabeled bones", "setting": "fetal rat long bones", "result": "≥ 1", "unit": "µmol/L"}]}
